The test system of one assay is WI38 normal cell. Kind of assay: MTT cytotoxicity on normal fibroblast cells. Format: cell-based. To be noted: Homo sapiens, WI-38; MTT assay, non tumour normal cell WI38. In general terms: Tetrazolium assays rely on reduction of a dye to a coloured formazan, in cell work by metabolically active cells.
Assay [1] concerns PC3 cells (human prostate carcinoma). Kind of assay: MTT antiproliferative assay, PC3. To be noted: PC-3, PC3, triplicate, read-out: In vitro cytotoxicity IC50, PC3. Format: cell-based. How it is done:
(§1) The in vitro antiproliferative activity of all synthesised compounds was evaluated by an MTT assay according to the reported method[47]^,[48].
(§2) 2. Experimental procedure
(§3) 2.1. Antiproliferative screening
(§4) The in vitro antiproliferative activity of all synthesized compounds was evaluated by an MTT assay according to the reported method using five different human cancer cell lines, including […]
(§5) cervical carcinoma (HeLa), and human prostate cancer (PC-3). The cell lines were obtained from ATCC via a holding company for biological products and vaccines (VACSERA), Cairo, Egypt. The MTT assay is a colorimetric assay used for measuring the cellular growth based on the reduction of the yellow MTT to a purple formazan derivative by mitochondrial succinate dehydrogenase in viable cells. The color intensity of the formazan dye is correlated to the number of viable cells. The […]
(§6) IC50% values were calculated using dose response curves. The percentage of relative cell viability was calculated as (A570 of treated samples)/(A570 of untreated sample) × 100. The cytotoxic activity was defined as the concentration of the compound that caused 50% growth inhibition compared with the growth of an untreated cell. […]

Assay [2] deals with HePG2 cells (hepatocellular carcinoma). As to the kind of experiment: MTT antiproliferative assay, HePG2. It counts as cell-based, human. To be noted: Homo sapiens, HepG2, MTT assay, HePG2, triplicate; read-out: In vitro cytotoxicity IC50, HePG2. As to the method: as §1, §2, §3, §4, §5, §6
The subject of assay [3] is MCF-7 cells (human breast adenocarcinoma). As to the kind of experiment: MTT antiproliferative assay, MCF-7. Format: cell-based. To be noted: Homo sapiens, MCF7, MTT assay, MCF-7, triplicate; read-out: In vitro cytotoxicity IC50, MCF-7. How it is done: as §1, §2, §3, §4, §5, §6
For assay [4], the system named is HCT-116 cells. Kind of assay: Annexin V-FITC/PI apoptosis assay, HCT-116. To be noted: HCT-116, 10 µM, 24 h.
Method: (§14) A comparison was made to the control (DMSO) and reference (gefitinib).
(§15) The cell line samples were analysed using FACSCalibur flow cytometer.
(§16) with PI. The cells were compared with the control, which was treated with DMSO.
Analysis of cellular apoptosis
(§17) concentration, respectively, and then incubated for 24 h. Following incubation, 1 –5 × 10^5 cells were
(§18) harvested and suspended in 500 µ L of the binding buffer, 5 µ L of annexin V-FITC, and 5 µL of PI.
(§19) annexin V-FITC conjugate is specially engineered to produce an enhanced fluorescence signal and
(§20) photostability. The annexin V-FITC kit included annexin V-FITC for detecting apoptosis as well as PI
(§21) for detecting necrosis. Thus, apoptosis and necrosis could be effectively differentiated. Detection and
(§22) analysis of the annexin V-FITC binding by flow cytometry was conducted using a FITC signal
(§23) detector (typically FL1). PI staining was evaluated by a phycoerythrin emission signal detector
The test system of assay [5] is HCT-116 cells (colorectal carcinoma). As to the kind of experiment: MTT antiproliferative assay, HCT-116. It counts as cell-based, human. To be noted: Homo sapiens, HCT-116, MTT assay, HCT-116, triplicate; read-out: In vitro cytotoxicity IC50, HCT-116. As to the method: as §1, §2, §3, §4, §5, §6
For a further assay, the target named is T1, EGFR TK (Homo sapiens, UniProt P00533).
T1 construct: add 20 μl of diluted EGFR enzyme and incubate at 30°C for 40
T1 sequence (P00533 25-1210): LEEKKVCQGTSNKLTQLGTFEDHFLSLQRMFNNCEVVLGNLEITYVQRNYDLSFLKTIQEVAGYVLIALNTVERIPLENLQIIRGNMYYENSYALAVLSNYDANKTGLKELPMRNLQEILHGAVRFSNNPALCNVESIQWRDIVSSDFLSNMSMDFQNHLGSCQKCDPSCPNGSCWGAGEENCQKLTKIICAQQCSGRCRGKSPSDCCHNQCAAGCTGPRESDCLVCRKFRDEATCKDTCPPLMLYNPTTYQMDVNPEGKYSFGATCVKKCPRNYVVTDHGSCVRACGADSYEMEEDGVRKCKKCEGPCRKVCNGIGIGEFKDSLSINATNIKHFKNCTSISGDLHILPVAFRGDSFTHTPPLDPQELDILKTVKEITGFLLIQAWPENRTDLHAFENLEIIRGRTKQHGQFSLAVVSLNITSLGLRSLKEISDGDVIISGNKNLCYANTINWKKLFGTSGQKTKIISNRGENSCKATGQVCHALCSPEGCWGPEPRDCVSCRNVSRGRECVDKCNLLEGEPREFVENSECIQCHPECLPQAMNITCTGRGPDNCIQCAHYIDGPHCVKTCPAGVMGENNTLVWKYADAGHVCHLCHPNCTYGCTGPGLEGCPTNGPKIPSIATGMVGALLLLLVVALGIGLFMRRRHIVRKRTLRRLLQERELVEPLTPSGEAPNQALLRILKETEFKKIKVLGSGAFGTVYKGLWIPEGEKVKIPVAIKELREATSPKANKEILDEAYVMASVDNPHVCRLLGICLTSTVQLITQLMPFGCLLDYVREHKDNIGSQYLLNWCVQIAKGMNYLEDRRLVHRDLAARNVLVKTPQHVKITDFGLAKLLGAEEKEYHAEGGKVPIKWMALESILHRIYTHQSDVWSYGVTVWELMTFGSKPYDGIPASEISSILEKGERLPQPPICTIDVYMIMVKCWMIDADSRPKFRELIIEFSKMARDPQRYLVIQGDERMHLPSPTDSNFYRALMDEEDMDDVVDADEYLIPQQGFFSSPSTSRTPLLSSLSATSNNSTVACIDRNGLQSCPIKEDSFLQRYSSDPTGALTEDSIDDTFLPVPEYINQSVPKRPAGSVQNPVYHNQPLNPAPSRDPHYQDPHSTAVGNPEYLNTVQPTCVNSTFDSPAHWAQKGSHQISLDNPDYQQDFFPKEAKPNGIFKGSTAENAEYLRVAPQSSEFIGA
Kind of assay: EGFR TK inhibition assay (luminescent, Kinase-Glo MAX). It counts as biochemical. How it is done: 2.2. Epidermal growth factor inhibition assay
In vitro luminescent EGFR tyrosine kinase assay, using Kinase-Glo® MAX as a detection reagent using DP‐Glo™ reagent that measures the adenosine diphosphate (ADP) formed from a kinase reaction, were performed; this luminescent signal positively correlates with ADP amount and kinase activity. In 17 μl of distilled water, 6 μl of Kinase assay buffer and 1 μl ATP and 1 μl PTK substrate were mixed (master mixture). In every well, mix 20 μl of the master mixture and 5 μl of Inhibitor solution (Test Inhibitor) for positive control, and use 5 μl of the same solution without inhibitor (Inhibitor buffer) as the blank solution; add 20 μl of diluted EGFR enzyme and incubate at 30°C for 40

The test system of assay [6] is human caspase-3 (active) in HCT-116 cells. As to the kind of experiment: Caspase-3 ELISA in HCT-116 cells. Format: cell-based. As to the method:
(§7) Caspases are critical mediators of programmed cell death, that is, apoptosis. Caspase-3 is important in processes involving dissociation of the cell and the formation of the apoptotic element; therefore, it is regarded as one of the best biochemical hallmarks of apoptosis. […] The concentration of active caspase-3 was measured using the ELISA technique. In addition, the fluorescence density produced by the tested compounds is illustrated in Figure 4. […] The level of caspase-3 increased 5.7-fold compared to the control. Moreover, a considerable 7.3-fold increase in the caspase-3 level was detected following the treatment of the MCF-7 cells with compound 11. The bioluminescent intensities of caspase-3 indicated the apoptotic activity of compounds 3 and 11.
(§8) Afterward, measure luminescence using the
(§9) tested in triplicates.[36-38].
(§10) active caspase-3 [49]. […] The tested
(§11) Subsequently, 100 µL of an
(§12) incubated for 30 min at room temperature.
(§13) chromogen. […] The intensity of the resulting colored
(In an ELISA, binding on a coated surface is turned into a signal by an enzyme label.)

In assay [7] the test system is HeLa cells (cervical carcinoma). As to the kind of experiment: MTT antiproliferative assay, HeLa. It counts as cell-based, human. To be noted: Homo sapiens, triplicate, read-out: In vitro cytotoxicity IC50, HeLa. How it is done:
as §1, §2, §3, §4, §5, §6

For assay [8], the system named is HCT-116 cells. Kind of assay: Cell cycle analysis by PI flow cytometry, HCT-116. To be noted: HCT-116, 10 µM, 24 h.
Method: as §14
(§24) Cell cycle analysis and induction of apoptosis
(§25) Flow cytometry analysis of the cell cycle distribution
(§26) incubation period, the cells were collected, centrifuged, and ﬁxed with ice-cold ethanol (70%). The cells were subsequently treated with a buffer containing RNAse A and 0.1% Triton X-100, and stained
(§27) with PI. The cells were compared with the control, which was treated with DMSO. The DNA content
was measured by flow cytometry [50-52].
The subject of assay [9] is MCF-7 cells. As to the kind of experiment: Cell cycle analysis by PI flow cytometry, MCF-7. To be noted: MCF-7, 10 µM, 24 h.
Method: as §14, §24, §25, §26, §27
was measured by flow cytometry [50-52].
Assay [10] relates to human caspase-3 (active) in MCF-7 cells. Kind of assay: Caspase-3 ELISA in MCF-7 cells. Format: cell-based. As to the method: as §7, §8, §9, §10, §11, §12, §13
Assay [11] relates to MCF-7 cells. Kind of assay: Annexin V-FITC/PI apoptosis assay, MCF-7. To be noted: MCF-7, 10 µM, 24 h.
Method: as §14, §15, §16
Analysis of cellular apoptosis
as §17, §18, §19, §20, §21, §22, §23

Take `CN(C)/C=C/C(=C(C#N)C#N)c1cc2ccccc2o1` [Compound 3, (E)-2-(1-(benzofuran-2-yl)-3-(dimethylamino)allylidene)malononitrile]: the IC50 with WI38 normal cell turned out to be 63.1 ± 3.43 µM; in assay [1] it was 44.5 ± 3.5 µM; in assay [2] it was 40 ± 2.5 µM; in assay [3], 27.4 ± 1.8 µM; in assay [5] it was 10.8 ± 1 µM; against EGFR TK, 0.93 µM. For the same compound, the IC50 in assay [7] worked out at 69 ± 3.9 µM. The compound also displayed a Late apoptosis with HCT-116 cells [4] (control 0.11) of 5.79%. Moreover, in the assay with HCT-116 cells [4] (control 0.12), the Necrosis is 1.32%. This compound also returned an Early apoptosis in the assay with HCT-116 cells [4] (control 0.16) of 5.95%. For the same compound, the “Apoptosis, Total” value in the assay on HCT-116 cells [4] (control 0.39) stood at 13.06%. Moreover, the “Caspase-3 Conc.” value in assay [6] (24 h treatment, ELISA, control 63.51) was found to be 363.4 pg/mL. Besides, in assay [6] (compared to the control), the “Caspase-3 level, Fold” value is 5.7 fold. For the same compound, in the assay on HCT-116 cells [8] (control 0.39, '% Apoptosis' in Figure 5A), the “%Pre/G1” value was 13.06%. In addition, the “%G2/M” value in the assay on HCT-116 cells [8] (control 4.19) is 12.62%. In addition, the “%S” value with HCT-116 cells [8] (control 25.21) is 20.91%. For the same compound, the “%G0/G1” value in the assay on HCT-116 cells [8] (control 70.21) came out at 53.41%.

Turning to `N#Cc1c(-c2cc3ccccc3o2)ccnc1NCCc1ccccc1` [Compound 11, 4-(Benzofuran-2-yl)-2-(phenethylamino)nicotinonitrile], the IC50 in the assay on WI38 normal cell stood at 94.5 ± 5.13 µM; in [1], 18.8 ± 1.5 µM; in [2], 20.4 ± 1.6 µM; in assay [3], 14.6 ± 1.3 µM; in assay [5] it was 46.1 ± 2.7 µM; against EGFR TK, 0.81 µM. In addition, the IC50 in assay [7] was 32.1 ± 1.9 µM. The “%Pre/G1” value in the assay with MCF-7 cells [9] (control 0.55, '% Apoptosis' in Figure 6A) was found to be 16.25%. Besides, in the assay with MCF-7 cells [9] (control 3.66), the “%G2/M” value stood at 15.28%. In addition, the “%S” value with MCF-7 cells [9] (control 27.37) is 21.36%. Moreover, the “%G0/G1” value with MCF-7 cells [9] (control 66.42) amounted to 47.11%. Further, the “Caspase-3 Conc.” value in [10] (ELISA, control 60.7) was 440.08 pg/mL. Besides, the “Caspase-3 level, Fold” value in assay [10] (compared to the control) is given as 7.3 fold. For the same compound, the Necrosis in the assay with MCF-7 cells [11] (control 0.15) came out at 1.23%. The compound further came in with an Early apoptosis in the assay with MCF-7 cells [11] (control 0.16) of 6.89%. The Late apoptosis in the assay on MCF-7 cells [11] (control 0.24) is listed as 8.13%. The “Apoptosis, Total” value with MCF-7 cells [11] (control 0.55) stood at 16.25%.

In general, IC50 refers to the concentration that gives 50% inhibition.

The record behind these values is publication PMC8266232, “Design, synthesis, and analysis of antiproliferative and apoptosis-inducing activities of nitrile derivatives containing a benzofuran scaffold: EGFR inhibition assay and molecular modelling study” (Journal of Enzyme Inhibition and Medicinal Chemistry, 2021).
